This note sets out measurements from ChEMBL document CHEMBL1134252, “Reaction of Lys-Tyr-Lys triad mimics with benzylpenicillin: insight into the role of Tyr150 in class C beta-lactamase” (Bioorg Med Chem Lett, 2001).

Data set [1] can be described thus: Time taken by compound for 10% decrease in benzyl-penicillin concentration. The class given is ADME.
Data set [2] in a line: pKa1 value determined. It is filed as physicochemical. As to conditions: read-out: pKa1.
Data set [3] is described as follows: pKa2 value determined. The class given is physicochemical. As to conditions: read-out: pKa2.

Turning to `Cc1cc(CN)c(O)c(CN)c1`, the Time in data set [1] stood at 1.38 h. For the same molecule, the pKa in data set [2] was 7; in data set [3], 9.7.

Regarding `Cc1cc([C@@H](N)CO)c(O)c([C@@H](N)CO)c1`, in data set [1], the Time stood at 3.6 h. Moreover, the values for the pKa in data set [2] and in data set [3] were 6.3 and 9, respectively.

Take `Cc1ccc(O)c(CN)c1`: in data set [1], the Time amounted to 8.25 h. The pKa in data set [2] was found to be 8.7.

In data set [1], `COc1c(CN)cc(C)cc1CN` had a Time of 44.9 h. The pKa was found to be 8.5 in data set [2] and 10.2 in data set [3].

Consider `Cc1cc(CNCCO)c(O)c(CNCCO)c1`, for which the Time in data set [1] amounted to 2.45 h. Besides, the pKa came to 6.4 in data set [2] and 9.7 in data set [3].
